# In patent US20030091510A1, “METHODS FOR TREATING AND PREVENTING ASTHMA AND NON-INVASIVE FUNGUS-INDUCED RHINOSINUSITIS” (priority 1997, published 2003):
# “And” between values parts separate entries of the source, which are not always exact repeats. Identical values can stand only once.
# Key:
# [1] = tested on: non-invasive fungus-induced rhinosinusitis patients; experiment: Patients returning during a one week period on amphotericin B nasal irrigations (Table II); assay type: in vivo, human; set-up: key to Endoscopy Score A: endoscopy stage 0 = no disease to 3 = polyps filling nasal cavity; details: A = after antifungal treatment, one patient per line
# From the text: (§1) Stage 0: no evidence of disease
# (§2) Stage 1: polypoid changes/polyps seen by endoscopy only
# (§3) Stage 2: polyps in the middle meatus
# (§4) Stage 3: polyps filling the nasal cavity
# (§5) Patient Symptom Evaluation
# (§6) Stage −2: very bad/much worse
# (§7) Stage 0: baseline/no change
# (§8) Stage 2: very good/free of symptoms
# Only previously seen patients that were instructed to use the antifungal amphotericin B nasal irrigations were entered into this study.
# During a one week period, twenty patients returned to the physician's office (Table II). The average age of the returning patients was 47 years (range 16-74 years). The patients were using the amphotericin B irrigations for an average duration of about six months (range 1-16 months). […] In addition, some patients were using topical and systemic steroid therapy. Further, some patients were using an antibiotic nasal irrigation in addition to the antifungal irrigations. The antibacterial solution contained 80 mg gentamicin per L saline (Wilson's solution). Some patients mixed the antibacterial solution with the antifungal solution and then performed the nasal irrigations while others used each solution separately in a sequential manner. Some patients also had other diseases including asthma (15 of the 20 patients) and colitis (2 of the 20 patients).
# [2] = tested on: non-invasive fungus-induced rhinosinusitis patient; experiment: Eosinophil count in mucosal biopsies after antifungal treatment (Example 4); assay type: in vivo, human; details: person
# [3] = tested on: rhinosinusitis patient; experiment: Single patient study, one-sided then two-sided amphotericin B irrigation, RAST assay to Alternaria; assay type: in vivo, human
# Procedure: Only the left nasal-paranasal side, however, received surgery as well as intra-operative and post-operative treatment with about 20 mL of an amphotericin B solution (100 mg/L) two to four times daily.
# [4] = tested on: patients with previously diagnosed chronic asthma; experiment: Chronic asthma symptoms in patients of the Example 2 study (Example 5); assay type: in vivo, human
# From the text: One hundred and thirty-two consecutive rhinosinusitis patients were entered into a study to evaluate the use of an antifungal agent to treat non-invasive fungus-induced rhinosinusitis. After diagnostic analysis, 125 of the 132 patients (95%) had the following criteria: (1) presence of observable disease within the nasal-paranasal anatomy as evidenced by a CT scan, (2) presence of allergic mucus as evidenced by histologic evaluation of a surgical specimen, and (3) presence of fungal organisms within nasal-paranasal mucus as evidenced by the ability to culture fungal organisms from a mucus sample. The 125 non-invasive fungus-induced rhinosinusitis patients were started on an antifungal treatment of about 20 mL of an amphotericin B solution per nostril; two to four times daily for at least three months. The concentration of the amphotericin B solution was about 100 mg per liter of saline or water. A 20 mL bulb was used by the patient to mucoadminister the amphotericin B solution into the patient's nasal-paranasal anatomy. Data were compiled for 53 of the patients who had returned for their three month follow-up analysis.
# [5] = tested on: non-invasive fungus-induced rhinosinusitis patients; experiment: Amphotericin B irrigations in patients without previous nasal surgery (Example 3); assay type: in vivo, human; details: patient; for symptom score after treatment: score −1 before
# From the text: A person was diagnosed with non-invasive fungus-induced rhinosinusitis and instructed to perform amphotericin B irrigations twice a day.
# A person was diagnosed with non-invasive fungus-induced rhinosinusitis and instructed to perform amphotericin B irrigations twice a day, which was later increased to four times a day.
# A person was diagnosed with non-invasive fungus-induced rhinosinusitis and instructed to perform amphotericin B irrigations twice a day. This patient had been given intramuscular steroid shots every 3 to 8 months with the last shot being administered about seven months prior to starting the amphotericin B irrigations.
# [6] = tested on: fungal organisms within their mucus; experiment: Examination of mucus samples of non-responding patients for resistance; assay type: cell-based; details: five of the nine non-responding patients with available samples, all five
# From the text: Eleven of the 53 patients went from endoscopic evaluation stage 2 or 3 to stage 1 after three months. […] Five of the nine non-responding patients had previously collected mucus samples that were available for examination.
# [7] = tested on: non-invasive fungus-induced rhinosinusitis patients; experiment: Amphotericin B nasal irrigation study, three month follow-up (Example 2); assay type: in vivo, human
# From the text: In addition to patient interviewing, CT scan analysis, visual examination, and fungal culture analysis, two types of evaluations were used to score the success of the treatment: an endoscopic evaluation and a patient symptom evaluation. These evaluations were scored as follows:
# as §1, §2, §3, §4, §5, §6, §7, §8
# [8] = tested on: non-invasive fungus-induced rhinosinusitis patients; experiment: Itraconazole nasal irrigations in rhinosinusitis patients (Example 7); assay type: in vivo, human
# Procedure: Three non-invasive fungus-induced rhinosinusitis patients (person, person, and person) were instructed to perform nasal irrigation with an itraconazole solution. The itraconazole solution contained about 100 mg of itraconazole per L of solution (10% PEG-400 in sterile water) and was prepared as described herein. […] Each patient reported marked improvement in symptoms within two weeks of starting the itraconazole irrigations (symptom scores: −1 to +2 and −1 to +1).
# After treatment with itraconazole, that patient reported symptom improvement (symptom score: from −1 to 0).
# [9] = tested on: Geotrichum; experiment: MIC, macro broth dilution technique (NCCLS) on patient fungal isolates; assay type: cell-based; details: 48 hour MIC reading; isolate from rhinosinusitis patient
# Procedure: (§9) The following procedure was used to determine effective antifungal agents as well as effective concentrations of antifungal agents such that the fungal organisms isolated from patients can be prevented from growing or killed.
# (§10) Seventeen fungal isolates were collected from eight rhinosinusitis patients and tested for susceptibility against amphotericin B, ketoconazole, and itraconazole. Each antifungal agent was tested on these fungal isolates using the macro broth dilution technique according to the National Committee on Clinical Laboratory Standards (NCCLS) protocol. […] The results from this procedure provided an estimate of the efficacy of antifungal agents against specific fungal isolates in vitro.
# [10] = tested on: Trichoderma; experiment: as above; assay type: cell-based; details: 48 hour MIC reading; isolate from rhinosinusitis patient
# Procedure: as §9, §10
# [11] = tested on: chronic asthma patient; experiment: Itraconazole nasal irrigations in an asthma patient, symptoms and pulmonary function (Example 8); assay type: in vivo, human
# Procedure: Sputum and nasal-paranasal mucus samples were collected and analyzed.
# The concentration of the itraconazole solution was about 100 mg per liter. After a few weeks, the patient took their last course of systemic steroids. About two months after stopping the systemic steroids, the patient also stopped using the topical steroids as well as the bronchodilator.
# [12] = Oral itraconazole capsule, fraction remaining in the bowel lumen (Example 10); assay type: in vivo, human; details: 100 mg capsule before bedtime, at least two hours after last meal, without cola
# From the text: Three out of five consecutive patients with chronic rhinosinusitis reported having a history of colitis. […] Each patient was instructed to take the capsule before bedtime a minimum of two hours after their last meal and without any cola. Food and cola beverages increase absorption of the drug.
# [13] = tested on: Penicillium; experiment: MIC, macro broth dilution technique (NCCLS) on patient fungal isolates; assay type: cell-based; details: 48 hour MIC reading; isolates from rhinosinusitis patients; one isolate per table line
# Procedure: as §9, §10
# [14] = tested on: Cladosporium; experiment: as above; assay type: cell-based; details: 48 hour MIC reading; isolates from rhinosinusitis patients; one isolate per table line
# Procedure: as §9, §10
# [15] = after three months, about 20 mL of 100 mg/L solution per nostril two to four times daily
# [16] = after treatment, three month follow-up
# [17] = after seven months versus before treatment
# [18] = sixteen days after starting itraconazole irrigations, score 1 before
structure (smiles),measurement,setting,value
"C[C@@H]1[C@H](O)[C@@H](C)/C=C/C=C/C=C/C=C/C=C/C=C/C=C/[C@H](O[C@@H]2O[C@H](C)[C@@H](O)[C@H](N)[C@@H]2O)C[C@@H]2O[C@](O)(C[C@@H](O)C[C@@H](O)[C@H](O)CC[C@@H](O)C[C@@H](O)CC(=O)O[C@H]1C)C[C@H](O)[C@H]2C(=O)O [Amphotericin B, amphotericin B]",Endoscopy Score A,"[1]; irrigations 1-16 months, 1-2 x day, 0 no evidence of disease, 1 polypoid changes/polyps by endoscopy only, 2 polyps in middle meatus, 3 polyps filling nasal cavity",0 (10×) and 3 (5×) and 1 (2×)
same,Symptom Score A,"[1]; −2 very bad/much worse, −1 bad/worse, 0 baseline/no change, 1 good/improved, 2 very good/free of symptoms",+1 (6×) and +2 (6×) and 0 (6×) and −2 and 1
same,"eosinophil count in mucosal biopsies, all sinuses except the frontal",[2]; after nine months of irrigations twice a day,< 5%
same,eosinophil count in the frontal sinus biopsy,"[2]; after nine months of irrigations, frontal sinus obstructed, presumably not reached",10%
same,state of left paranasal sinuses at every post-operative visit,[3]; left side surgery plus intra- and post-operative irrigation,clear of disease
same,symptoms after treatment of both sides,[3]; right side surgery and irrigation of both sides for about seven weeks,symptom-free
same,number of the 28 patients that stopped taking their asthma medication,[4]; after starting antifungal treatment,26
same,number of the 37 asthmatic patients declaring an improvement or complete elimination of asthma symptoms,[4]; after three months of antifungal treatment (amphotericin B irrigation of Example 2),28
same,pulmonary function test before versus after antifungal treatment,"[4]; four of the 28 improved patients, all four",improved pulmonary function
same,patients of the 23 formerly on systemic steroids that took steroids after starting antifungal treatment,"[4]; human, in vivo",none
same,endoscopic score after treatment,"[5]; irrigations twice a day for four months, score 0 before",0
same,symptom score after treatment,[5]; irrigations twice a day for four months,+1
same,endoscopic score after treatment,"[5]; irrigations twice a day for fourteen months, score 3 before",0
same,symptom score after treatment,[5]; irrigations twice a day for fourteen months,+2
same,endoscopic score after treatment,"[5]; irrigations twice, later four times a day, sixteen months, score 1 before",0
same,symptom score after treatment,"[5]; irrigations twice, later four times a day, sixteen months",+2
same,susceptibility of fungal organisms in mucus of non-responding patients,[6],resistant
same,"CT scan finding, patient with bilateral rhinosinusitis","[7]; after four months, 20 mL of 100 mg/L solution per nostril two times daily, no recent surgery, no steroids, FIG. 1 and 2",complete disappearance of opacity and symptoms characteristic of rhinosinusitis
same,number of the 33 stage 0 cases confirmed by CT scans,[7]; after three months,Six
same,number of the 53 patients that went from endoscopic evaluation stage 2 or 3 to stage 0 (no evidence of disease),[7]; [15],33
same,number of the 53 patients that went from endoscopic evaluation stage 2 or 3 to stage 1,[7]; [15],Eleven
same,number of the 53 patients that did not respond to the treatment,"[7]; after three months, endoscopic evaluation",nine
same,number of the 53 patients giving themselves symptom stage 0 (baseline/no change),[7]; [16],six
same,number of the 53 patients giving themselves symptom stage 1 (good/improved),[7]; [16],three
same,number of the 53 patients giving themselves symptom stage 2 (very good/free of symptoms),[7]; [16],44
same,number of different fungal species in mucus after versus before antifungal treatment,"[7]; several patients, fungal organism culturing, amphotericin B irrigation of Example 2",remarkably reduced
same,adverse local reaction to nasal irrigations,"[8]; third patient, amphotericin B irrigations",burning sensation
same,MIC,[9],0.1 µg/mL
same,MIC,[10],4 µg/mL
"CCC(C)n1ncn(-c2ccc(N3CCN(c4ccc(OCC5COC(Cn6cncn6)(c6ccc(Cl)cc6Cl)O5)cc4)CC3)cc2)c1=O (stereo not drawn) [Itraconazole, itraconazole]",forced expiratory volume in 1 second (FEV1) after treatment,"[11]; after seven months of irrigations, 3.34 liter before treatment",4.27 L
same,forced vital capacity (FVC) after treatment,"[11]; after seven months of irrigations, 3.99 liter before treatment",4.80 L
same,maximal forced expiratory flow (FEFmax) after treatment,"[11]; after seven months of irrigations, 9.1 liter per second before treatment",12.6 liter per second
same,maximum voluntary ventilation (MVV) after treatment,"[11]; after seven months of irrigations, 119 liter per minute before treatment",156 liter per minute
same,improvement of MVV,[11]; [17],31.90%
same,increase of FEFmax,[11]; [17],38.46%
same,increase of FEV1,[11]; [17],27.84%
same,increase of FVC,[11]; [17],20.30%
same,itraconazole that should remain in the bowel lumen,[12],about 50%
same,"endoscopic score, left side",[8]; [18],1
same,"endoscopic score, right side",[8]; [18],0
same,adverse local reaction to nasal irrigations,"[8]; third patient, itraconazole irrigations",did not have any adverse local reaction
same,symptom score after itraconazole irrigations,"[8]; third patient, switched because of adverse reaction to amphotericin B, score −1 before",0
same,MIC,[13],0.25 µg/mL
"CC(=O)N1CCN(c2ccc(OCC3COC(Cn4ccnc4)(c4ccc(Cl)cc4Cl)O3)cc2)CC1 (stereo not drawn) [Ketoconazole, ketoconazole]",MIC,[14],0.05 µg/mL
same,MIC,[13],3.13 µg/mL
